Experiment [1] concerns in vitro expression of sfGFP in the presence of RF1. The experiment is described as follows: In vitro transcription-translation (iTT) assay of sfGFP in the presence of RF1. The experiment is classed as biochemical. The note with it: peptide 5 µmol/L, RF1, 37 °C, 2 h, fluorescence, normalized to absence of PrAMPs, n = 3. The method, then: The sfGFP expression analysis relied on the NEB PureExpress Delta RF123 Kit (New England Biolabs, Frankfurt, Germany). The DNA template encoding sfGFP with a UAG stop codon was amplified from the pY71sfGFP vector by PCR using the primers sfGFP fwd ([…]) and sfGFP rev ([…]). The release factor RF1 of the kit was diluted 50-fold (v/v) in 1× Pure System Buffer (PSB, 1 mol/L magnesium acetate, 0.5 mol/L K3PO4 (pH 7.3), 1 mol/L potassium glutamate, 1 mol/L NH4Cl, 0.5 mol/L CaCl2, 1 mol/L spermidine, 0.1 mol/L putrescine, 0.1 mol/L DTT). sfGFP expression was performed in a freshly prepared mixture of kit solution A (2 µL), kit solution B (1.5 µL), 50-fold diluted RF1 (0.5 µL), sfGFP template (0.1325 pmol, 35 ng) or water as control (0.25 µL), PSB (0.25 µL), and a PrAMP (50 or 0 µmol/L) dissolved in water (0.5 µL). The reaction mixture was transferred to a black 384-well plate (flat bottom, PS, 784900, Greiner Bio-One GmbH), covered with a lid, and incubated (37 °C, 2 h) in a microplate reader (Gemini EM, Molecular Devices, San Jose, CA, USA). Fluorescence was recorded every 10 min (λex = 485 nm, λem = 535 nm).

The subject of experiment [2] is 50S subunit assembly / 70S ribosome in E. coli RN31. Kind of experiment: Ribosome profile analysis (RPA), sucrose gradient of E. coli RN31 lysate. The note with it: 90 min; for RPA [pre-50S formation]: E. coli RN31, 33% TSB, peptide 8 µg/mL, 5–25% sucrose gradient, n = 2 (Api137 n = 7). The experiment is classed as cell-based, Escherichia coli. The procedure: E. coli RN31 was grown in 33% TSB (37 °C, 200 rpm) from a starting OD600 of 0.05 to an OD600 of 0.2, measured on a NanoPhotometer® (NP80; Implen; Westlake Village, CA, USA), and divided into subcultures that were inoculated with a peptide ([…]) before being cultured for 90 min (37 °C, 200 rpm). The following steps were performed on ice. Cells were harvested by centrifugation (4000× g, 4 °C, 25 min), washed with TICO buffer (20 mmol/L Hepes-KOH, pH 7.6, 6 mmol/L MgAc2, 30 mmol/L KAc), centrifuged (4000× g, 25 min, 4 °C), and stored at −80 °C. The cell pellet was suspended in TICO buffer (500 µL) and mixed with silica beads (zirconium glass pellets, 100 µm diameter; Carl Roth; Karlsruhe, Germany) to lyse the cells on a FastPrep-24^TM 5G (MP Biomedicals, Solon, OH, USA) using three disruption cycles (30 s, 6.0 m/s) interrupted by 1 min of incubation on ice after each cycle. Cell debris was removed by centrifugation (5000× g, 4 °C, 5 min), the supernatant was transferred to a new reaction tube, centrifuged (20,000× g, 4 °C, 20 min), the absorbance was recorded at 260 nm on a NanoPhotometer® NP80, and the sample was stored at −80 °C.
A 5% (w/v) sucrose solution (6.5 mL) in TICO buffer containing 2-mercaptoethanol (4 mmol/L) was poured into an open-top centrifuge tube (13.2 mL, 14 × 89 mm, Beckman Coulter) and bottomed with a 25% (w/v) sucrose solution (6.5 mL) in TICO buffer containing 2-mercaptoethanol (4 mmol/L) using a cannula. The tube was sealed with parafilm and placed horizontally at 4 °C for 3 h and vertically at 4 °C for 30 min. A portion of the upper layer (550 µL) was replaced by lysate (500 µL, A260 = 30) and centrifuged using a swing-out rotor (SW 41 Ti, 52,500× g, 4 °C, 19 h) without a brake. The contents were transferred from bottom-up to obtain equal volumes in all wells of a black 96-well plate with a flat bottom (96 Well PP black Greiner Bio-One GmbH, Frickenhausen, Germany) using the Äkta Purifier 10 system, and absorbance was recorded at a wavelength of 254 nm. Fluorescence was measured in the plate using the PARADIGM at excitation (λex) and emission (λem) wavelengths of 485 nm and 535 nm for eGFP and 585 nm and 635 nm, respectively, for mCherry and normalized to the 70S ribosome peak (set to 100%).

SMILES strings stand for the structures. Where a SMILES comes first, the peptide text is derived from it. [ ]: non-standard residue; d: D form. The star is where a group is joined. Orn(α-tetramethylguanidino) = CN(C)C(=N[C@@H](CCCN)C(=O)*)N(C)C; Pro(trans-4-F) = O=C(O)[C@@H]1C[C@@H](F)CN1; Pro(cis-4-F) = O=C(O)[C@@H]1C[C@H](F)CN1

Turning to `CC[C@H](C)[C@H](NC(=O)[C@H](Cc1ccc(O)cc1)NC(=O)[C@@H](NC(=O)[C@@H]1C[C@H](F)CN1C(=O)[C@H](CCCNC(=N)N)NC(=O)[C@H](CC(N)=O)NC(=O)[C@H](CC(N)=O)NC(=O)[C@H](CCCN)N=C(N(C)C)N(C)C)C(C)C)C(=O)N1CCC[C@H]1C(=O)N[C@@H](CCCNC(=N)N)C(=O)N1CCC[C@H]1C(=O)N[C@@H](CCCNC(=N)N)C(=O)N1CCC[C@H]1C(=O)N1CCC[C@H]1C(=O)N[C@@H](Cc1c[nH]cn1)C(=O)N1CCC[C@H]1C(=O)N[C@@H](CCCNC(=N)N)C(=O)N[C@@H](CC(C)C)C(=O)O` [Api839] ({Orn(α-tetramethylguanidino)}-NNR[Pro(cis-4-F)]VYIPRPRPPHPRL-OH), the “Residual iTT (sfGFP expression relative to no PrAMP)” value in experiment [1] is 23 ± 0.2%. The “RPA [pre-50S formation]” value in experiment [2] was “yes”.

As to `CC[C@H](C)[C@H](NC(=O)[C@H](Cc1ccc(O)cc1)NC(=O)[C@@H](NC(=O)[C@@H]1C[C@@H](F)CN1C(=O)[C@H](CCCNC(=N)N)NC(=O)[C@H](CC(N)=O)NC(=O)[C@H](CC(N)=O)NC(=O)[C@H](CCCN)N=C(N(C)C)N(C)C)C(C)C)C(=O)N1CCC[C@H]1C(=O)N[C@@H](CCCNC(=N)N)C(=O)N1CCC[C@H]1C(=O)N[C@@H](CCCNC(=N)N)C(=O)N1CCC[C@H]1C(=O)N1CCC[C@H]1C(=O)N[C@@H](Cc1c[nH]cn1)C(=O)N1CCC[C@H]1C(=O)N[C@@H](CCCNC(=N)N)C(=O)N[C@@H](CC(C)C)C(=O)O` [Api840] ({Orn(α-tetramethylguanidino)}-NNR[Pro(trans-4-F)]VYIPRPRPPHPRL-OH), the “Residual iTT (sfGFP expression relative to no PrAMP)” value in experiment [1] is recorded as 35 ± 0.1%. Moreover, in experiment [2], the “RPA [pre-50S formation]” value is “yes”.

As for `CC[C@H](C)[C@H](NC(=O)[C@H](Cc1ccc(O)cc1)NC(=O)[C@@H](NC(=O)[C@@H]1CCCN1C(=O)[C@H](CCCNC(=N)N)NC(=O)[C@H](CC(N)=O)NC(=O)[C@H](CC(N)=O)NC(=O)[C@H](CCCN)N=C(N(C)C)N(C)C)C(C)C)C(=O)N1CCC[C@H]1C(=O)N[C@@H](CCCNC(=N)N)C(=O)N1CCC[C@H]1C(=O)N[C@@H](CCCNC(=N)N)C(=O)N1CCC[C@H]1C(=O)N1C[C@@H](F)C[C@H]1C(=O)N[C@@H](Cc1c[nH]cn1)C(=O)N1CCC[C@H]1C(=O)N[C@@H](CCCNC(=N)N)C(=O)N[C@@H](CC(C)C)C(=O)O` [Api847] ({Orn(α-tetramethylguanidino)}-NNRPVYIPRPRP[Pro(cis-4-F)]HPRL-OH), the “Residual iTT (sfGFP expression relative to no PrAMP)” value is 21% in experiment [1] (listed as 4S-Fpr14) and 21 ± 0.2% in experiment [1] (listed as Pro14 4S-Fpr (cis)). Besides, the “RPA [pre-50S formation]” value in experiment [2] was “reduced”. The “ribosomal profile, pre-50S peak” value in experiment [2] (E. coli RN31, adjusted peptide concentration 16 µg/mL) was “a pre-50S peak was observed”.

Turning to `CC[C@H](C)[C@H](NC(=O)[C@H](Cc1ccc(O)cc1)NC(=O)[C@@H](NC(=O)[C@@H]1CCCN1C(=O)[C@H](CCCNC(=N)N)NC(=O)[C@H](CC(N)=O)NC(=O)[C@H](CC(N)=O)NC(=O)[C@H](CCCN)N=C(N(C)C)N(C)C)C(C)C)C(=O)N1CCC[C@H]1C(=O)N[C@@H](CCCNC(=N)N)C(=O)N1CCC[C@H]1C(=O)N[C@@H](CCCNC(=N)N)C(=O)N1CCC[C@H]1C(=O)N1C[C@H](F)C[C@H]1C(=O)N[C@@H](Cc1c[nH]cn1)C(=O)N1CCC[C@H]1C(=O)N[C@@H](CCCNC(=N)N)C(=O)N[C@@H](CC(C)C)C(=O)O` [Api848] ({Orn(α-tetramethylguanidino)}-NNRPVYIPRPRP[Pro(trans-4-F)]HPRL-OH), the “Residual iTT (sfGFP expression relative to no PrAMP)” value stood at 64% in experiment [1] (listed as 4R-Fpr14) and 64 ± 4.6% in experiment [1] (listed as Pro14 4R-Fpr (trans)). Moreover, the “RPA [pre-50S formation]” value in experiment [2] was “no”.

(Values after paper PMC12189828, “Substitution of Proline Residues by 4-Fluoro-L-Proline Affects the Mechanism of the Proline-Rich Antimicrobial Peptide Api137” (Antibiotics, 2025).)
